Results from US20070015149A1, “Prlz regulatory elements in the treatment of disease and the discovery of therapeutics” (priority 2002, published 2007).

What was measured:
PrLZ expression = experiment: Androgen-activated PrLZ expression in prostate cancer cell lines after androgen deprivation; assay type: cell-based, human
Method: (§1) As an accessory sex organ, development and function of the prostate gland are controlled by androgens, through the mediation of the AR (Gelmann, J. Clin. Oncol. 20:3001-15, 2002). To investigate the possible regulation of PrLZ by androgens, we treated prostate cancer cell lines with an androgen analog, methyltrienolone (R1881, 1 nM), after androgen deprivation. Under cell culture conditions for androgen deprivation (phenol red-free RPMI1640 for 48 hours), there was a marked decline in PrLZ expression in all the prostate cancer cell lines. […] This culture system, or another like it, can be used to identify agents that modulate (by either increasing or decreasing) PrLZ expression.
Expression studies: The 502 bp PrLZ gene-specific fragment was subcloned after PCR amplification of the PrLZ cDNA in pBK-CMV, with primers: […], and […]. The amplified DNA was cloned into pGEM-T easy (Promega) and verified by DNA sequencing. The fragment was released from the vector by EcoRi and used in hybridization reactions. Standard protocols were used in Southern and Northern blot hybridizations (Sambrook et al., Molecular cloning, a laboratory manual, Clod Spring Harbor Laboratory Press, 2001), with α-^32P-dCTP used in the labeling step. […]

PSA expression = experiment: Androgen-activated PSA expression in LNCaP lineage cells; assay type: cell-based, human; conditions: LNCaP vs C4-2 and C4-2B4 cells
Method: as §1
By comparing the patterns of androgen-activated expression of PrLZ and PSA, it became clear that PrLZ was controlled by a regulatory mechanism that was different from the one controlling the PSA expression. […] Thus, along the transition from an AD to an AI state, there were heterologous changes in AR mediated gene regulation. While LNCAP derivative cell lines lost the mechanism of AR-controlled PSA production, they maintained the capability to regulate some other androgen responsive genes, including PrLZ.

[1] = tested on: expression of TPD52 members; conditions: HL-60 and K-562 cells; cited from earlier work

Row | SMILES | PrLZ expression upon androgen treatment (PrLZ expression; R1881 1 nM after androgen deprivation (phenol red-free RPMI1640, 48 hours), prostate cancer cell lines) | PrLZ transcription upon androgen treatment (PrLZ expression; all LNCaP lineage cells (LNCaP, C4-2, C4-2B4)) | PSA expression upon androgen treatment (PSA expression) | Expression of TPD52 members upon treatment [1]
1 | C[C@]1(O)CC[C@H]2[C@@H]3CCC4=CC(=O)CCC4=C3C=C[C@@]21C [R1881, methyltrienolone] | dramatically activated the expression of the PrLZ | marked PrLZ transcription | androgen-dependent up-regulation only in LCNaP cells | –
2 | CCCCCCCCCCCCCC(=O)O[C@@H]1[C@@H](C)[C@@]2(O)[C@@H](C=C(CO)C[C@]3(O)C(=O)C(C)=C[C@@H]23)[C@H]2C(C)(C)[C@]12OC(C)=O [TPA, 12-O-trtradecanoylphorbol-13-acetate] | – | – | – | inhibited
